# Test results reported in patent US8592375B2, “Multifunctional context-activated protides and methods of use” (Los Angeles Biomedical Research Institute at Harbor-UCLA …, priority 2002, dated 2013).
# Where two headings read alike, the source gives them in different places. Where a SMILES comes first, the peptide text is derived from it.
# Columns and labels:
# [1] = molecular target: T1, staphylococcal V8 protease (Staphylococcus aureus, UniProt P0C1U8); assay: Cleavage (activation) of PT-1 by purified V8 protease in vitro, followed by analytical RP-HPLC and AU-PAGE; format: biochemical, S. aureus; details: in a time frame of minutes, fragments consistent with RP-1 and IL-8-like domains
# T1 construct: purchased Sigma Chemical Co
# T1 sequence (P0C1U8 69-336): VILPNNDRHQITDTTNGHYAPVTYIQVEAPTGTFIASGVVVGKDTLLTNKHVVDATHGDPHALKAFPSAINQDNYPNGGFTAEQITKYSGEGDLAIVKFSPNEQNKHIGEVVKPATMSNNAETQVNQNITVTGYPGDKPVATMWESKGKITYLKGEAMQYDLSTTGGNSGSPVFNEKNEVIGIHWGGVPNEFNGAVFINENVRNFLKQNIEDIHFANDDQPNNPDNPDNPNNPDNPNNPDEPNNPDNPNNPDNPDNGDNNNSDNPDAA
# [2] = test system: S. aureus strains ISP479C and ISP479R; format: cell-based
# Text: (§1) In order to assess the antimicrobial properties of PT-1, a panel of well-characterized test pathogens was used that included S. aureus strains ISP479C and ISP479R as described by Dhawan et al., Infect. Immun. 66:[…] (1998); Candida albicans strains 36082 (ATCC type strain 36082)and 36082R as described by Yeaman et al., Infect. Immun. 64:1379-1384 (1996); Salmonella typhimurium strains m5996s and 14028s as described by Fields et al., Science 243:1059-62 (1989); Yeaman et al., 38th Interscience Conference on Antimicrobial Agents and Chemotherapy (ICAAC), San Diego, Calif., Abstract No. F-170 (1999); and Bacillus subtilis strain ATCC 6633 as described by Yeaman et al., Infect. Immun. 60:1202-1209 (1992), each of which is incorporated herein by reference in its entirety.
# A microtiter well assay was also performed as a complement to the radial diffusion assay described above. In this assay, PT-1, RP-1, or V8 protease (Sigma Chemical Co.) were serially diluted from 100 ug (range, 100-0.20 ug/ml) and individually assessed for antimicrobial activity against S. aureus strains ISP479C and ISP479R as described above. In addition, this assay allowed for the evaluation of antimicrobial activities of combinations of PT-1 and V8, in conditions of constant or dynamic dilution of one or both agents. This latter approach enabled the determination of static as well as dynamic fractional inhibitory concentrations (FICs) of PT-1 in the presence and absence of purified V8 protease.
# [3] = test system: all organisms except S. aureus (Candida albicans, Salmonella typhimurium, Bacillus subtilis); assay: Modified radial diffusion assay, test pathogens other than S. aureus; format: cell-based; details: 5 ug per well, organisms that do not elaborate V8 protease
# Text: as §1
# (§2) In order to compare the antimicrobial activities of PT-1 with those of RP-1 against a panel of test pathogens, radial diffusion assay and a microtiter well assay were utilized.
# (§3) Briefly, a modified radial diffusion assay was employed to compare the antimicrobial activities of PT-1 with RP-1 in a solid-phase matrix format. […] The assay plates were then incubated for 18 h at 37° C., after which zones of inhibition (in mm of diameter) were measured and recorded.
# [4] = test system: S. aureus strains ISP479C and ISP479R; assay: Modified radial diffusion assay, S. aureus strains; format: cell-based; details: 5 ug per well, both S. aureus strains, regardless of intrinsic susceptibility or resistance
# Text: as §1, §2, §3
smiles,measurement,setting,value
CC[C@H](C)[C@H](NC(=O)[C@H](CS)NC(=O)[C@H](CCC(N)=O)NC(=O)[C@H](CS)NC(=O)[C@H](CCCNC(=N)N)NC(=O)[C@H](CC(C)C)NC(=O)[C@H](CCC(=O)O)NC(=O)[C@H](CCCCN)NC(=O)[C@H](C)N)C(=O)N[C@@H](CCCCN)C(=O)N[C@H](C(=O)N[C@@H](Cc1ccc(O)cc1)C(=O)N[C@@H](CO)C(=O)N[C@@H](CCCCN)C(=O)N[C@@H](CCC(=O)O)C(=O)N[C@@H](C)C(=O)N[C@@H](CC(C)C)C(=O)N[C@@H](Cc1ccc(O)cc1)C(=O)N[C@@H](CCCCN)C(=O)N[C@@H](CCCCN)C(=O)N[C@@H](Cc1ccccc1)C(=O)N[C@@H](CCCCN)C(=O)N[C@@H](CCCCN)C(=O)N[C@@H](CCCCN)C(=O)N[C@@H](CC(C)C)C(=O)N[C@@H](CC(C)C)C(=O)N[C@@H](CCCCN)C(=O)N[C@@H](CO)C(=O)N[C@@H](CC(C)C)C(=O)N[C@@H](CCCCN)C(=O)N[C@@H](CCCNC(=N)N)C(=O)N[C@@H](CC(C)C)C(=O)NCC(=O)O)[C@@H](C)O [PT-1] (H-AKELRCQCIKTYSKEALYKKFKKKLLKSLKRLG-OH; N-terminus and C-terminus assumed),cleavage (activation) on exposure to purified V8 protease,[1],cleaved (activated) into two separate fragments
same,FIC (fractional inhibitory concentration),"[2]; PT-1 with V8 protease, considered synergistic",< 0.5
same,MIC,[2]; co-incubated with V8 protease,3.1 µg/mL
same,increased activity in the presence of purified V8 protease compared to its absence,[2]; with vs without purified V8 protease,≥ 2 fold
same,MIC,[2]; without V8 protease,12.5 µg/mL
same,antimicrobial activity compared with RP-1 (zones of inhibition),[3],substantially less antimicrobial activity than RP-1
same,antimicrobial activity (zones of inhibition),[4],activation and enhanced antimicrobial activity
